Data set [1] can be described thus: Plasma, breast adipose tissue and NAF concentrations of tamoxifen and its metabolites (LC-MS/MS), presurgical trial. It is filed as in vivo, human. The conditions noted are these: in vivo. The text has this:
All participants provided informed consent. Baseline assessments included a history and physical, explanation of gel application, completion of the Breast Cancer Prevention Trial Eight Symptom Scale (BESS) questionnaire, collection of a venous blood sample, and collection of nipple aspirate fluid (NAF) from NAF yielders. […] Treatment began within 5 days post-randomization and ended on the day prior to surgical resection. Participants were instructed to apply the gel to the entire skin envelope of each breast each morning, after a shower. Duration of therapy was 6-10 weeks. Compliance was assessed through participant diaries, counts of returned pills and of returned gel canisters. Participants who took at least 80% of the prescribed dose were considered compliant.
Assessments similar to those performed at baseline were repeated on the day prior to, or on the morning of surgery. During surgery, breast adipose tissue from the surgical sample was snap frozen and stored at −80° C. for measurement of tamoxifen and metabolites. The samples were obtained from a location adjacent to the DCIS lesion to provide uniformity between participants undergoing breast conservation and mastectomy. The paraffin block of the core and excision samples were acquired by the recruiting institution and 10 sections from each specimen were submitted to the NU Pathology Core Facility. The sections were cut in batches (with pre- and post-treatment samples in the same batch), shipped cold, and processed for immunohistochemistry within four weeks.
(Z)-tamoxifen, (Z)-NDT, (E) and (Z)-4-OHT, and (Z)-endoxifen were measured by liquid chromatography-tandem mass spectrometry with a turbo ion spray interface operating in positive mode (API 3000; AB SCIEX, Foster City, Calif.). […] For analysis of NAF, samples were collected in a capillary tube and diluted with 200 μL of phosphate buffered saline; 100 μL of the diluted NAF sample was used for analysis. Breast adipose tissue samples, 25 mg, were minced and treated with 125 μL of […] and extracted as described above.
Retention times for (Z)-tamoxifen, (Z)-NDT, (Z)-4-OHT, (E)-4-OHT and (Z)-endoxifen were 7.3, 6.8, 5.1, 4.7 and 4.5 min, respectively. […] In three participants, matched samples were not available: breast adipose tissue was not collected in two, and the plasma sample was missing in one.
Since the fraction of E and Z isoforms of 4-OHT was of particular interest, we used an additional validated method to study plasma concentrations of these metabolites in a different laboratory (Eurofins Medinet, Chantilly, Va.): Plasma from blood samples collected in lithium-heparin tubes was frozen at −20° C., shipped in batches on dry ice to them Eurofins Medinet central laboratory; LC-MS/MS was used for the simultaneous determination of (E) 4-OHT and (Z) 4-OHT, with a lower limit of quantitation (LOQ) of 10 pg/mL and upper LOQ of 10,000 pg/mL. Eurofins Medinet developed and validated them method for BHR Pharma, in accordance with the FDA Guidance on Bioanalytical Method Validation.

A further data set has as its system MCF-7 xenograft. To be noted: dose of 2-8 mg/kg; cited from earlier work.
For data set [2] the following is noted: oral dose of 160 mg daily; cited from earlier work.
The subject of data set [3] is MCF7 xenograft. The conditions noted are these: MCF7 xenograft bearing mice, cited from earlier work.
The subject of data set [4] is MCF7 xenograft. To be noted: simulation using human PK; cited from earlier work.
Another data set has as its target ERβ (Homo sapiens, UniProt Q92731). To be noted: cited from earlier work.
For data set [5] the following is noted: alcoholic solution of ENX 0.2 mg/mL with 0.5% oleic acid; cited from earlier work.
Another data set addresses T1, ERα (Homo sapiens, UniProt P03372).
T1 sequence (P03372 1-595): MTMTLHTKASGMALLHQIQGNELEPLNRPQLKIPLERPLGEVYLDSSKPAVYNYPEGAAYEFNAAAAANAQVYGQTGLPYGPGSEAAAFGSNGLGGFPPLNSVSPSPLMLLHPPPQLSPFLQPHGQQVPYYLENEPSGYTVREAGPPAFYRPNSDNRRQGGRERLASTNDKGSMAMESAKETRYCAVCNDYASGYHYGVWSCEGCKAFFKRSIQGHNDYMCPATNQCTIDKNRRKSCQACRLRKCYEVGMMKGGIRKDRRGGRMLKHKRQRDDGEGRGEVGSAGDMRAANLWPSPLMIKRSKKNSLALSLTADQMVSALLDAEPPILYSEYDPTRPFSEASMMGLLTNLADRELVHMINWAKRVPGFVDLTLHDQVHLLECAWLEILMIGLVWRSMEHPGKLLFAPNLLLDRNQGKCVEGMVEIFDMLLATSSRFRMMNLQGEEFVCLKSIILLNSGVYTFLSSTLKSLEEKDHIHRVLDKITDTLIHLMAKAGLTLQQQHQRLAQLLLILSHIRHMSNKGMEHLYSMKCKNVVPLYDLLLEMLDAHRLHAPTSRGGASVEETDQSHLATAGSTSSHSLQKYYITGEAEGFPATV
To be noted: cited from earlier work.

The next data set can be described thus: clinical. To be noted: female, human, in vivo.
For data set [6] the following is noted: female, human, in vivo, 72 h.
Method: (§1) Nonpregnant women scheduled for mastectomy to prevent or treat breast cancer were recruited through the Lynn Sage Comprehensive Breast Center of Northwestern Medicine. All participants were randomized to patch application to one surgical breast (per participant) or the abdominal skin. The diclofenac patch (Flector® patch, 10 cm×14 cm) is a semi-occlusive, bioadhesive patch containing 129.7 mg of diclofenac acid. After baseline evaluation, the participants were instructed on site of patch application and to replace patch every 12 h over 72 h prior to surgery.
(§2) The breast group wore the patch over the upper outer breast, with the lower inner corner of the patch at the level of the nipple (FIG. 3b). The abdominal group wore the patch on the lower abdomen on the side opposite the planned mastectomy (FIG. 3a). Participants were assessed for baseline signs/symptoms and then by telephone the second day of the treatment and on the day of surgery. All adverse events were coded using the NCI Common Terminology Criteria for Adverse Events version 4.0.
(§3) On the day of surgery, the transdermal patch was removed in the operating room prior to anesthesia and 30 mL venous blood was collected with anticoagulant K2EDTA (BD Vacutainer®, BD Hemogard™ product no. 366643). Tissue samples from the mastectomy specimen were obtained from eight predetermined locations of one breast per participant (FIG. 3b), four central/periareolar and four peripheral samples 5 cm away, at 12, 3, 6, and 9 O'clock. Each tissue sample was weighed and snap-frozen in liquid nitrogen and kept in −80° C. until analysis.
(§4) Formalin-fixed, paraffin-embedded (FFPE) samples were taken from locations adjacent to the drug assay samples, for histological evaluation of tissue composition, and were available from all subjects.
(§5) The concentrations of all the drugs used in rats and humans were determined by liquid chromatography-tandem mass spectroscopy (API 3000; AB SCIEX, Foster City, Calif., USA). […] The mobile phase was A: 0.1% formic acid in water (v/v) and B: 0.1% formic acid in acetonitrile (v/v). […] The lowest limits of quantification (LLOQ) were as follow: tamoxifen and N-desmethyl tamoxifen (NDT) (plasma 10 ng/mL; tissue 40 ng/g); 4-OHT and endoxifen (plasma 0.5 ng/mL; tissue 2 ng/g); telapristone and N-desmethyl telapristone (d-telapristone) (plasma 1 ng/mL; tissue 1.5 ng/g); and diclofenac (plasma 0.5 ng/mL; tissue 2 ng/g).
(§6) The medians and IQR's were reported for diclofenac concentrations by breast region and patch groups (Table 9). To compare breast concentrations by site of patch application, we replaced non-detectable values with “zero” and considered the median concentration from eight samples as the representative breast concentration per individual for statistical purposes. The Wilcoxon rank-sum test was used to assess median concentration differences between patch groups, among regions of the breast, and by menopausal status within each treatment group.
(§7) Diclofenac was determined by LC-MS/MS (API 3000; AB SCIEX, Foster City, Calif.).

Chain of ERβ (Q92731 whole entry): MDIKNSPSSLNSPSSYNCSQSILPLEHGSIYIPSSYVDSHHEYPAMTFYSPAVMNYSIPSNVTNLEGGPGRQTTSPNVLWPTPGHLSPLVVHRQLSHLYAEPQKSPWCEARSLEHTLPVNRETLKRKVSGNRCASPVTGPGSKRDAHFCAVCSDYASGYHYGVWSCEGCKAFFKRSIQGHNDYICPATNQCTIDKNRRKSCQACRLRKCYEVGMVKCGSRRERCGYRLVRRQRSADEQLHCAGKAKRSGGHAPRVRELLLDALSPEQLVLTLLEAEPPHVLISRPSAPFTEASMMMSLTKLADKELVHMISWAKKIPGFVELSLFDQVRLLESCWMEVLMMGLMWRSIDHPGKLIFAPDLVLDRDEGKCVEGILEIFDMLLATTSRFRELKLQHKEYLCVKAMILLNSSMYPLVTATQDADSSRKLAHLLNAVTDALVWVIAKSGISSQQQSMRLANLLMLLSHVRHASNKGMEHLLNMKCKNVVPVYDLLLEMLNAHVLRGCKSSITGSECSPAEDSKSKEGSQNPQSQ
Method for clinical: as §1, §2, §3, §4, §5, §6, §7

On to 4-hydroxytamoxifen [4-OHT gel], for which, in data set [1], the “NAF concentration of NDT, individual participants” value is listed as “undetectable”; the “NAF concentration of endoxifen” value was “undetectable”; the “NAF concentration of tamoxifen, individual participants” value was “undetectable”; the “participants with 4-OHT detectable in breast tissue” value is listed as 9 of 10. In addition, the “participants with 4-OHT detectable in plasma” value in data set [1] is reported as 5. Further, in data set [1] (po), the “breast adipose tissue concentrations of (Z) 4-OHT (discussion)” value was “over 5 ng/mg”.

On to `CC/C(=C(\c1ccc(O)cc1)c1ccc(OCCNC)cc1)c1ccccc1.O=C(O)CC(O)(CC(=O)O)C(=O)O` [ENX citrate], for which the “efficacy against MCF-7 xenograft model” value with MCF-7 xenograft is “shows efficacy”.

`CC/C(=C(\c1ccc(O)cc1)c1ccc(OCCNC)cc1)c1ccccc1` [Endoxifen, N-desmethyl-4-hydroxytamoxifen]: the MTT result in [2] is on record as “not reached”. Also, in the data set on MCF7 xenograft [3], the “Cstasis (plasma ENX showing 100% TGI)” value is reported as 53 nM. Also, the “KC50 of plasma ENX” value in the data set on MCF7 xenograft [3] (tumor growth inhibition, oral ENX) was 14 nM. Besides, in the data set with MCF7 xenograft [4], the “TGI at day 21, 0.5 mg/day oral” value is recorded as 67%; the “TGI at day 21, 1 mg/day oral” value is reported as 87%; the “TGI at day 21, 4 mg/day oral” value is 97%. Further, the “binding affinity for ERβ relative to TAM” value at ERβ was 56 fold. Moreover, the “in vitro human skin penetration” value in [5] is on record as “penetrates human skin efficiently”. The “binding affinity for ERα relative to TAM” value on ERα is 25 fold.

In the case of `O=C(O)Cc1ccccc1Nc1c(Cl)cccc1Cl` [diclofenac], the concentration at 72 h worked out at 0.13 ng/g in “clinical” (diclofenac breast concentration, abdominal patch, All locations); 0 ng/g in “clinical” (diclofenac breast concentration, abdominal patch, sampling location 1); 0.18 ng/g in “clinical” (diclofenac breast concentration, abdominal patch, sampling location 2); 0.2 ng/g in “clinical” (diclofenac breast concentration, abdominal patch, sampling location 3); 0.19 ng/g in “clinical” (diclofenac breast concentration, abdominal patch, sampling location 4); 0.11 ng/g in “clinical” (diclofenac breast concentration, abdominal patch, sampling location 5). The concentration at 72 h in the data set “clinical” (diclofenac breast concentration, abdominal patch, sampling location 6) came to 0.04 ng/g; in “clinical” (diclofenac breast concentration, abdominal patch, sampling location 7) it was 0.14 ng/g; in the data set “clinical” (diclofenac breast concentration, abdominal patch, sampling location 8), 0.08 ng/g; in the data set “clinical” (diclofenac breast concentration, breast patch, All locations) it was 0.77 ng/g; in the data set “clinical” (diclofenac breast concentration, breast patch, sampling location 1), 0.63 ng/g; in the data set “clinical” (diclofenac breast concentration, breast patch, sampling location 2), 0.64 ng/g. Moreover, the concentration at 72 h in the data set “clinical” (diclofenac breast concentration, breast patch, sampling location 3) came out at 0.48 ng/g; in the data set “clinical” (diclofenac breast concentration, breast patch, sampling location 4), 1.64 ng/g; in “clinical” (diclofenac breast concentration, breast patch, sampling location 5) it was 1.98 ng/g; in “clinical” (diclofenac breast concentration, breast patch, sampling location 6), 0.31 ng/g; in “clinical” (diclofenac breast concentration, breast patch, sampling location 7), 1.12 ng/g; in the data set “clinical” (diclofenac breast concentration, breast patch, sampling location 8) it was 0.58 ng/g. In addition, the concentration at 72 h was found to be 1.06 ng/mL in “clinical” (diclofenac plasma concentration, abdominal patch); 1.02 ng/mL in the data set “clinical” (diclofenac plasma concentration, breast patch); 8.71 ng/g in “clinical” (median breast concentration of diclofenac with IQR, fatty samples); 0.19 ng/g in “clinical” (median breast concentration of diclofenac with IQR, fibrous samples); 0.52 ng/g in the data set “clinical” (median breast concentration of diclofenac with IQR, mixed samples); 0.21 ng/g in the data set “clinical” (median diclofenac breast concentration, abdominal group, medium-sized breasts). In addition, the concentration at 72 h was determined as 0.6 ng/g in the data set “clinical” (median diclofenac breast concentration, abdominal group, small breasts); 1.31 ng/g in “clinical” (median diclofenac breast concentration, breast group, medium-sized breasts); 1.12 ng/g in the data set “clinical” (median diclofenac breast concentration, breast group, small breasts); 0.85 ng/g in “clinical” (median diclofenac concentration, central locations (1 through 4), abdominal group); 4.91 ng/g in “clinical” (median diclofenac concentration, central locations (1 through 4), breast group); 0.75 ng/g in the data set “clinical” (median diclofenac concentration, peripheral locations (5 through 8), abdominal group). The concentration at 72 h was 9.92 ng/g in the data set “clinical” (median diclofenac concentration, peripheral locations (5 through 8), breast group) and 1.2 to 4.8 ng/g in “clinical” (range of diclofenac concentrations in tissue samples of three women, abdominal group). The “diclofenac breast concentration, abdominal patch, All locations” value in data set [6] is reported as 0.13 (0.00, 0.37) ng/g tissue. In [6], the “diclofenac breast concentration, abdominal patch, sampling location 6” value was 0.04 (0.00, 0.48) ng/g tissue. In data set [6], the “diclofenac breast concentration, breast patch, All locations” value is on record as 0.77 (0.23, 2.97) ng/g tissue. Further, the “diclofenac breast concentration, breast patch, sampling location 6” value in data set [6] is 0.31 (0.00, 1.23) ng/g tissue. Besides, in [6], the “diclofenac plasma concentration, abdominal patch” value is on record as 1.06 (0.81, 1.88) ng/mL. For the same compound, the “diclofenac plasma concentration, breast patch” value in data set [6] is reported as 1.02 (0.71, 1.78) ng/mL. Moreover, the “tissue samples with detectable diclofenac, abdominal group” value in [6] is on record as 58%. In [6], the “tissue samples with detectable diclofenac, breast group” value was 79%.

The record behind these values is patent US10780067B2, “Endoxifen for local transdermal therapy to the breast” (Northwestern University, priority 2016, dated 2020).
